{"source": "patent US6458384B2", "about": "“Pharmaceutical with predetermined activity profile” (priority 2000, dated 2002)", "key": {"[1]": {"experiment": "Release According to USP (USP Paddle, 50 rpm), 0.1 N HCl then phosphate buffer pH 6.8", "format": "physicochemical", "conditions": "0.1 N HCl 0-120 min, phosphate buffer pH 6.8 >120 min, 37° C.", "method": "The term “release profile” refers to the pattern of release of the respective pharmacologically active substance over time, that is, the amount released over time. This may be measured either in vivo, e.g. indirectly by measuring the blood concentration, or preferably ex vivo, e.g. by the USP paddle method that allows for determination of the dissolution rate of the substance. […] Samples are withdrawn for determination of the amount of substance released in intervals of e.g. 30 or 60 min an analysed, e.g. spectrophotometrically, for example at 272 nm for caffeine, and/or using HPLC methods. A preferred method is described in the examples that may be used in analogy for other pharmaceuticals according to the invention. Preferred methods for analyzing blood or plasma levels of compounds are also described in the examples—analogous methods can be used for different active substances and are known int the art or easily derivable from the art. Where not indicated otherwise, percentages or other relative indications of amounts are given on a weight by weight (w:w) basis. The dissolution rate determination using the USP paddle apparatus has already been described above. The attrition rate of tablet cores for subsequent film-coating is preferably determined under standard conditions in a friabilator. The rate of attrition, i.e. the friability, is calculated. […] The crushing strength of tablets is determined in a tablet hardness tester (N=10). [table] [table] [table]"}, "[2]": {"experiment": "USP paddle test in phosphate buffer pH 6.8 of ethylcellulose-coated caffeine tablets", "format": "physicochemical", "method": "The term “release profile” refers to the pattern of release of the respective pharmacologically active substance over time, that is, the amount released over time. This may be measured either in vivo, e.g. indirectly by measuring the blood concentration, or preferably ex vivo, e.g. by the USP paddle method that allows for determination of the dissolution rate of the substance. For example, a USP paddle apparatus operating at 37° C. and 50 rpm ist used and the preparations are tested in (e.g. 900 ml) artificial intestinal fluid, e.g. phosphate buffer pH 6.8; artificial gastric juice, e.g. 0.1 N HCl; or water. Samples are withdrawn for determination of the amount of substance released in intervals of e.g. 30 or 60 min an analysed, e.g. spectrophotometrically, for example at 272 nm for caffeine, and/or using HPLC methods."}}, "data": [{"smiles": "Cn1c(=O)c2c(ncn2C)n(C)c1=O", "note": "[Caffeine]", "values": [{"measurement": "Accumulated rel, Time (min) 15", "setting": "[1]; Example 1 sachet formulation, 15 min", "value": 0.0, "unit": "%"}, {"measurement": "Accumulated rel, Time (min) 30", "setting": "[1]; Example 1 sachet formulation, 30 min", "value": 0.0, "unit": "%"}, {"measurement": "Accumulated rel, Time (min) 60", "setting": "[1]; Example 1 sachet formulation, 60 min", "value": 0.0, "unit": "%"}, {"measurement": "Accumulated rel, Time (min) 120", "setting": "[1]; Example 1 sachet formulation, 120 min", "value": 0.0, "unit": "%"}, {"measurement": "Accumulated rel, Time (min) 180", "setting": "[1]; Example 1 sachet formulation, 180 min", "value": 0.0, "unit": "%"}, {"measurement": "Accumulated rel, Time (min) 240", "setting": "[1]; Example 1 sachet formulation, 240 min", "value": 0.0, "unit": "%"}, {"measurement": "Accumulated rel, Time (min) 300", "setting": "[1]; Example 1 sachet formulation, 300 min", "value": 0.0, "unit": "%"}, {"measurement": "Accumulated rel, Time (min) 330", "setting": "[1]; Example 1 sachet formulation, 330 min", "value": 87.0, "unit": "%"}, {"measurement": "Accumulated rel, Time (min) 360", "setting": "[1]; Example 1 sachet formulation, 360 min", "value": 99.0, "unit": "%"}, {"measurement": "Accumulated rel, Time (min) 420", "setting": "[1]; Example 1 sachet formulation, 420 min", "value": 99.5, "unit": "%"}, {"measurement": "Accumulated rel, Time (min) 15", "setting": "[1]; Example 2 tablet formulation, 15 min", "value": 0.0, "unit": "%"}, {"measurement": "Accumulated rel, Time (min) 30", "setting": "[1]; Example 2 tablet formulation, 30 min", "value": 0.0, "unit": "%"}, {"measurement": "Accumulated rel, Time (min) 60", "setting": "[1]; Example 2 tablet formulation, 60 min", "value": 0.0, "unit": "%"}, {"measurement": "Accumulated rel, Time (min) 120", "setting": "[1]; Example 2 tablet formulation, 120 min", "value": 0.0, "unit": "%"}, {"measurement": "Accumulated rel, Time (min) 180", "setting": "[1]; Example 2 tablet formulation, 180 min", "value": 0.0, "unit": "%"}, {"measurement": "Accumulated rel, Time (min) 240", "setting": "[1]; Example 2 tablet formulation, 240 min", "value": 0.0, "unit": "%"}, {"measurement": "Accumulated rel, Time (min) 300", "setting": "[1]; Example 2 tablet formulation, 300 min", "value": 15.0, "unit": "%"}, {"measurement": "Accumulated rel, Time (min) 330", "setting": "[1]; Example 2 tablet formulation, 330 min", "value": 89.3, "unit": "%"}, {"measurement": "Accumulated rel, Time (min) 360", "setting": "[1]; Example 2 tablet formulation, 360 min", "value": 99.5, "unit": "%"}, {"measurement": "Accumulated rel, Time (min) 420", "setting": "[1]; Example 2 tablet formulation, 420 min", "value": 99.7, "unit": "%"}, {"measurement": "Accumulated release, Time (min) 15", "setting": "[1]; Example 3 tablet formulation, 15 min", "value": 0.0, "unit": "%"}, {"measurement": "Accumulated release, Time (min) 30", "setting": "[1]; Example 3 tablet formulation, 30 min", "value": 0.0, "unit": "%"}, {"measurement": "Accumulated release, Time (min) 60", "setting": "[1]; Example 3 tablet formulation, 60 min", "value": 0.0, "unit": "%"}, {"measurement": "Accumulated release, Time (min) 120", "setting": "[1]; Example 3 tablet formulation, 120 min", "value": 0.0, "unit": "%"}, {"measurement": "Accumulated release, Time (min) 180", "setting": "[1]; Example 3 tablet formulation, 180 min", "value": 0.0, "unit": "%"}, {"measurement": "Accumulated release, Time (min) 240", "setting": "[1]; Example 3 tablet formulation, 240 min", "value": 0.0, "unit": "%"}, {"measurement": "Accumulated release, Time (min) 300", "setting": "[1]; Example 3 tablet formulation, 300 min", "value": 5.3, "unit": "%"}, {"measurement": "Accumulated release, Time (min) 330", "setting": "[1]; Example 3 tablet formulation, 330 min", "value": 85.6, "unit": "%"}, {"measurement": "Accumulated release, Time (min) 360", "setting": "[1]; Example 3 tablet formulation, 360 min", "value": 99.0, "unit": "%"}, {"measurement": "Accumulated release, Time (min) 420", "setting": "[1]; Example 3 tablet formulation, 420 min", "value": 99.2, "unit": "%"}, {"measurement": "time for releasing the complete amount of caffeine after release starts", "setting": "[2]; Example 5 ethylcellulose-coated tablets, phosphate buffer pH 6.8, 5 out of six tested tablets", "value": "≤ 2", "unit": "h"}, {"measurement": "start of caffeine release after melatonin release", "setting": "[2]; Example 5 test preparation: coated gelatine capsule with 6 caffeine tablets and 0.5 mg melatonin, stated from the properties of the tablets", "value": "approximately 420 min"}]}]}
